We go through 5 compounds from ChEMBL document CHEMBL1201862, “PubChem BioAssay data set” (2004).

Active and inactive are the calls of the source.

Experiment [1] has as its target Dual specificity mitogen-activated protein kinase kinase 1 (Homo sapiens, UniProt Q02750). The experiment can be described thus: Navigating the Kinome. Panel member name: MAP2K1. It counts as functional.
The target in experiment [2] is Serine/threonine-protein kinase Chk1 (Homo sapiens, UniProt O14757). Type of experiment: functional.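 Also: measured as one member of a kinome-wide kinase profiling panel.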
Chain of Serine/threonine-protein kinase Chk1 (O14757 whole entry): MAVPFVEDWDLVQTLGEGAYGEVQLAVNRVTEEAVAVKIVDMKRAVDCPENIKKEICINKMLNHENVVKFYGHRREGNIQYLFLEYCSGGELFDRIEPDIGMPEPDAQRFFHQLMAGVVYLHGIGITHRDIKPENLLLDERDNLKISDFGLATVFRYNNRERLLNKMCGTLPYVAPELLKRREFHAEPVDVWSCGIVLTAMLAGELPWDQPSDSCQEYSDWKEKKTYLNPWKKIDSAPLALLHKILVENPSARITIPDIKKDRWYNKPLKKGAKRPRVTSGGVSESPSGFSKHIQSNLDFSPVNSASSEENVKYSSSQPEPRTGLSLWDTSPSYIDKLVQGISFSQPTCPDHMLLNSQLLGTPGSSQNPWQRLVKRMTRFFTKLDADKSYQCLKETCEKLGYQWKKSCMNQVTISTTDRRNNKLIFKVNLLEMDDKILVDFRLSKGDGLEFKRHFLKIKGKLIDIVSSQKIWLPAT
Experiment [3] concerns the target T1, Insulin-degrading enzyme (Homo sapiens, UniProt P14735).
T1 sequence (P14735 whole entry): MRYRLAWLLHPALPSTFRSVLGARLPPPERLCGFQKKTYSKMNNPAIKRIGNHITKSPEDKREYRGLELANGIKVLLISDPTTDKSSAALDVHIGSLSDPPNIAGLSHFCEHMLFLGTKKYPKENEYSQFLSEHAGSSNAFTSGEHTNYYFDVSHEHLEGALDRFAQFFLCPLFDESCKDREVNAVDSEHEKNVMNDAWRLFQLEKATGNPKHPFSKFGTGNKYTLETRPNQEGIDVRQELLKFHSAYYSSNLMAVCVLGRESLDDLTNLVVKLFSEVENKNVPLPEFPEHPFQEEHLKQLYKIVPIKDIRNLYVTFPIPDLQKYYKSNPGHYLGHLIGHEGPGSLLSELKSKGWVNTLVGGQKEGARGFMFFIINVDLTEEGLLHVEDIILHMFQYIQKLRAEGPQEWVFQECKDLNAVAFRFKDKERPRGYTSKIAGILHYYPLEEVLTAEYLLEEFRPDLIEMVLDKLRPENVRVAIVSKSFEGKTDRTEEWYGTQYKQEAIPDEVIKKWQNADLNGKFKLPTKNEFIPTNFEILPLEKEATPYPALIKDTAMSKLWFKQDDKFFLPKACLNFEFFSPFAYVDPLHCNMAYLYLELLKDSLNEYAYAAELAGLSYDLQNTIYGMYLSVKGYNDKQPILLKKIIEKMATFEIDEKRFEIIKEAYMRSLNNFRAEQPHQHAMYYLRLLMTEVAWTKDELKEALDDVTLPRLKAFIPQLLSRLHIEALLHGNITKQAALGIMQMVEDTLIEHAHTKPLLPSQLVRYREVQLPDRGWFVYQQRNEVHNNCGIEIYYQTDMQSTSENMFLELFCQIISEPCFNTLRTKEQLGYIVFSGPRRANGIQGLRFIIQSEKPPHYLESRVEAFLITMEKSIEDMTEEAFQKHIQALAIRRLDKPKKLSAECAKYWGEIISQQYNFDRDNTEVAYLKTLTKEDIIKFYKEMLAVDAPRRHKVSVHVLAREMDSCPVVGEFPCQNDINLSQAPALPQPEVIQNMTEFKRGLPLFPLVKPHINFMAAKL
The experiment can be described thus: recombinant IDE activation, cell-free – biochemical, fluorescence polarization, counter-screen for IDE activator project, dose response (AID 588681). (In general: Polarisation of emitted light reports the rotation of a fluorescent probe.)

For experiment [4], the target named is T1, Insulin-degrading enzyme. The experiment in a line: cellular IDE activation of Abeta substrate cleavage – fluorescence polarization, HEK cells, dose response (AID 588439). Type of experiment: functional, cell-based.
Experiment [5] deals with HEK293. The experiment in a line: membrane integrity loss in HEK cells – cell-based, fluorescence, cytotoxicity control for IDE activator project, dose response (AID 588440).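 Also: cytotoxicity by LDH release measuring loss of membrane integrity.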 As to conditions: Homo sapiens. It counts as functional.
Experiment [6] deals with HEK293. The experiment can be described thus: optical interference in Abeta FP readout, dose response, artefact control for IDE activator project, biochemical, fluorescence polarization (AID 588442). Type of experiment: functional, cell-based. Conditions: Homo sapiens.
Experiment [7] in a line: SAR analysis of small molecule inhibitors of Apaf-1 using a LZ-Caspase-9/Caspase-3 Fluorescent Selectivity assay - Set 2. It counts as functional. As to conditions: read-out: IC50_Mean.
Experiment [8] addresses T2, Apoptotic protease-activating factor 1 (Homo sapiens, UniProt O14727).
T2 sequence (O14727 whole entry): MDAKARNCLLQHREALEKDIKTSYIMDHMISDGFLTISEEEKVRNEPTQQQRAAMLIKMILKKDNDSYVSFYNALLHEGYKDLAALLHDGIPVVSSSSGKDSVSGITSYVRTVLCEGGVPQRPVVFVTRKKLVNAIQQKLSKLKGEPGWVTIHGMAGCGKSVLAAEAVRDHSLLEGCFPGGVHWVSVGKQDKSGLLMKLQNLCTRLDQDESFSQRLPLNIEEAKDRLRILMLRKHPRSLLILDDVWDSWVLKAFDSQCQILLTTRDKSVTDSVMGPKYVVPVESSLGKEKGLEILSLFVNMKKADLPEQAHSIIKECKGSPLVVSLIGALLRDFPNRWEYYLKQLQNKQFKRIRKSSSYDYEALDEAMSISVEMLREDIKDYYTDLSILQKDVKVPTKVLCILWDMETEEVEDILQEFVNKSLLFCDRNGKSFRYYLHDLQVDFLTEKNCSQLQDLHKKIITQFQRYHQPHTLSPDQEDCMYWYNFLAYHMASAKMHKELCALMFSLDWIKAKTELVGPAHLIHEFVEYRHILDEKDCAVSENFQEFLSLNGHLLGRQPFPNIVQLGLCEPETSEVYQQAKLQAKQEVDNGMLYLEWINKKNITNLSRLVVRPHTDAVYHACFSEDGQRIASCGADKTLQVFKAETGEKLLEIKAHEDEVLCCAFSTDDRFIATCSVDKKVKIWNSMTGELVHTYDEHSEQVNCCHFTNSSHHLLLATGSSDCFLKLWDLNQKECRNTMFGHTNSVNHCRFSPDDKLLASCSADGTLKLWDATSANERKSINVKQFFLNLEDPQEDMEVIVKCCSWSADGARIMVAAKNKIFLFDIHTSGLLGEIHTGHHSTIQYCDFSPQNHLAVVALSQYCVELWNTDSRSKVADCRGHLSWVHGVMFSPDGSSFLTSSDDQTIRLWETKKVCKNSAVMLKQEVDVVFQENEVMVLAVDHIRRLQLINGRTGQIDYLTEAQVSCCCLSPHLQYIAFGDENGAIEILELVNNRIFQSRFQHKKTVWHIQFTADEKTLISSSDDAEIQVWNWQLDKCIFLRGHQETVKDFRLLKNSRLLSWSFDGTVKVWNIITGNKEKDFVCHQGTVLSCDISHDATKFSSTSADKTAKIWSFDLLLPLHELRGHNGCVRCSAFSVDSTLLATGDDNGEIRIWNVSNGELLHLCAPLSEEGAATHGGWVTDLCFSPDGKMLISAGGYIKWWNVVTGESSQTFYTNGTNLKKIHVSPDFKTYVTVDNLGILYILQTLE
The experiment can be described thus: SAR analysis of small molecule Inhibitors of Apaf-1 in a Fluorescent assay - set 2. Type of experiment: functional. As to conditions: read-out: IC50_Mean.

The target of experiment [9] is DNA dC->dU-editing enzyme APOBEC-3G (Homo sapiens, UniProt Q9HC16). The experiment can be described thus: inhibition of APOBEC3G ssDNA deamination – biochemical, fluorescence, single-stranded DNA substrate, SAR follow-up (AID 602136). It counts as functional. As to conditions: read-out: IC50_Mean.
Chain of DNA dC->dU-editing enzyme APOBEC-3G (Q9HC16 whole entry): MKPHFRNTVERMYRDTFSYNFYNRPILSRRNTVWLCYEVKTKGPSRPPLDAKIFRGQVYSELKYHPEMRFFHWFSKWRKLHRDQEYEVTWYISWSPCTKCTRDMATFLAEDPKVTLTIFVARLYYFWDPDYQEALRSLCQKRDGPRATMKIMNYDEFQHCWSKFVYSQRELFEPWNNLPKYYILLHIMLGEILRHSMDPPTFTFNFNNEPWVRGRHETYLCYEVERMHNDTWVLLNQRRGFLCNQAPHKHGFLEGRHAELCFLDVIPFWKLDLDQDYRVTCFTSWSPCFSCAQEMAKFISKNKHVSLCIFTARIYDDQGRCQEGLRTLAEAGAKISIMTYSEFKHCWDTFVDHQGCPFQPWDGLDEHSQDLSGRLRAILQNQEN
Experiment [10] addresses DNA dC->dU-editing enzyme APOBEC-3A (Homo sapiens, UniProt P31941). The experiment in a line: SAR analysis of small molecule inhibitors of APOBEC3A DNA Deaminase via a fluorescence-based single-stranded DNA deaminase assay. Type of experiment: functional. Conditions: read-out: IC50_Mean.
A short description of experiment [11]: Vero cell cytotoxicity, cytotoxicity control for M. tuberculosis inhibitor project, purified and synthesized samples, set 3 (AID 504684). It counts as functional. As to conditions: […].
Experiment [12] in a line: THP-1 cell cytotoxicity, dose response, cytotoxicity control, set 3 (AID 504852). Type of experiment: functional. Conditions: Mycobacterium tuberculosis.

Chain of DNA dC->dU-editing enzyme APOBEC-3A (P31941 whole entry): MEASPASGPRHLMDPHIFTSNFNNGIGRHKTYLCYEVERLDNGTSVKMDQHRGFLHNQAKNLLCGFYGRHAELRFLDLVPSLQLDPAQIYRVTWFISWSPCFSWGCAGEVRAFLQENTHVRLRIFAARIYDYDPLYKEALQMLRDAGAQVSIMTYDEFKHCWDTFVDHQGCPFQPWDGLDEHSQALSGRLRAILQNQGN
Chain of Dual specificity mitogen-activated protein kinase kinase 1 (Q02750 whole entry): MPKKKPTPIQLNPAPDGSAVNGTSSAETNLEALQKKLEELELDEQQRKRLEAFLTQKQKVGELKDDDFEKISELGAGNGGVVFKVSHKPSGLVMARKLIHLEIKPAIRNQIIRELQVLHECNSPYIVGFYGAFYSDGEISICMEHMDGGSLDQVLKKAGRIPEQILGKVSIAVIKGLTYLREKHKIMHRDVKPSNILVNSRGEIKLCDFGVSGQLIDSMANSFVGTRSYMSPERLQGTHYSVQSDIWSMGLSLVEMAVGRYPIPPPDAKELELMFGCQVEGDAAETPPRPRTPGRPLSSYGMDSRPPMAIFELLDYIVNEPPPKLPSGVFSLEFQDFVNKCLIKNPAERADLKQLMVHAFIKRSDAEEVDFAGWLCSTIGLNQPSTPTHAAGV

As usually defined, the Ki is a dissociation constant, usually derived from enzyme kinetics or from competition with a known ligand. Consider `CN(C)Cc1ccc2c(c1)NC(=O)C1CCCN21` (configuration not stated), for which the figures for the inhibitory constant (Ki) in [1] and in experiment [2] were 3.16 µM (active) and 1.58 µM (active), respectively.

The EC50 is the midpoint of the concentration-response curve. Consider `O=C(O)c1ccccc1NC(=O)C1CCN(S(=O)(=O)c2cccc3nsnc23)CC1`, for which the EC50 in [3] is > 54.7 µM (inactive); in experiment [4], > 18.2 µM (inactive); in [6], 2.44 µM (active). Also, in experiment [5], the IC50 was > 89.2 µM (inactive).

Turning to `Cc1cc(C)c2c(c1)N(Cc1ccc(Cl)c(Cl)c1)C(=O)C2=O`, the IC50 is 20.1 µM (active) in [7] and 42 µM (active) in [8].

Regarding `CN1CC2=C(N=C1NCCCO)c1ccccc1CC21CCCCC1`, the IC50 in experiment [9] and in [10] was > 99 µM (inactive) throughout.

As a reminder, the CC50 is the concentration giving 50% cytotoxicity. For the compound `COC(=O)c1ccc(CNc2c(N3CCCC3)c(=O)c2=O)cc1`, the CC50 in experiment [11] and in experiment [12] was > 100 µM (active) in each case.
